Test results from US10294234B2, “HIV inhibitor compounds” (priority 2017, dated 2019).
pEC50: −log10 of the molar value. Where two headings read alike, the source gives them in different places.

What was measured:
[1] = system: HIV-1 (IIIB) in MT-4 cells; experiment: MT-4 HIV assay; format: cell-based; conditions: Human immunodeficiency virus 1, MT4, 120 h
Outline: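 Antiviral activity was read by Cell Titer Glo after a 5-day, 37 °C culture of MT-4 cells pre-infected with a 1:250 dilution of HIV-1 (IIIB). Compounds were tested as threefold dilution series in complete RPMI. Controls were no drug, mock infection and 5 uM AZT.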

[2] = Outline: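 Each compound (1 uM) is incubated in duplicate with 0.5 mg/mL liver microsomal protein from dog, rat or human plus NADPH-regenerating system. Samples taken at 2, 12, 25, 45 and 65 minutes are deproteinised and quantified by LC/MS/MS. Half-life gives Clint.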
[3] = HIV-1 (IIIB), MT-4 cells, 5 days, Cell Titer Glo, read-out: EC50
[4] = human liver microsomes 0.5 mg/mL, 1 uM compound, NADPH
[5] = rat liver microsomes 0.5 mg/mL, 1 uM compound, NADPH

Row | SMILES | pEC50 [1, 3] | Human Pred Cl. ([2]; human, microsomes) [L/H/kg] | Rat. Pred. Cl. ([2]; rat, microsomes) [L/H/kg] | pEC50 [1] | Human Pred Cl. [2, 4] [L/H/kg] | Rat. Pred. Cl. [2, 5] [L/H/kg] | Dog. Pred. Cl. ([2]; microsomes) [L/H/kg]
1 | COC(=O)N[C@H](C(=O)N[C@@H](Cc1ccc(-c2ccc(N3CC4CCC(C3)N4C3COC3)nc2)cc1)[C@@H](O)CN(Cc1c(F)cc(-c2ccc(N3CC4CCC(C3)N4C3COC3)nc2)cc1F)NC(=O)[C@@H](NC(=O)OC)C(C)(C)C(F)(F)F)C(C)(C)C(F)(F)F [Example 203, Methyl ((5S,8S,9S,14S)-11-(2,6-difluoro-4-(6-(8-(oxetan-3-yl)-3,8-diazabicyclo [3.2.1]octan-3-yl)pyridin-3-yl)benzyl)-16,16,16-trifluoro-9-hydroxy-15,15-dimethyl-8-(4-(6-(8-(oxetan-3-yl)-3,8-diazabicyclo[3.2.1]octan-3-yl)pyridin-3-yl)benzyl)-3,6,13-trioxo-5-(1,1,1-trifluoro-2-methylpropan-2-yl)-2-oxa-4,7,11,12-tetraazahexadecan-14-yl)carbamate] | 8.30 | 0.32 | 1.09 | – | – | – | –
2 | COC(=O)N[C@H](C(=O)N[C@@H](Cc1ccc(-c2ccc(N3CC4CCC(C3)N4C3COC3)nc2)cc1)[C@@H](O)CN(Cc1c(F)cc(-c2ccn(C3CC3)n2)cc1F)NC(=O)[C@@H](NC(=O)OC)C(C)(C)C(F)(F)F)C(C)(C)C(F)(F)F [Example 204, Methyl ((5S,8S,9S,14S)-11-(4-(1-cyclopropyl-1H-pyrazol-3-yl)-2,6-difluorobenzyl)-16,16,16-trifluoro-9-hydroxy-15,15-dimethyl-8-(4-(6-(8-(oxetan-3-yl)-3,8-diazabicyclo[3.2.1]octan-3-yl)pyridin-3-yl)benzyl)-3,6,13-trioxo-5-(1,1,1-trifluoro-2-methylpropan-2-yl)-2-oxa-4,7,11,12-tetraazahexadecan-14-yl)carbamate] | 8.50 | 0.19 | 0.48 | – | – | – | –
3 | COC(=O)N[C@H](C(=O)N[C@@H](Cc1ccc(-c2ccc(N3CC4CCC(C3)N4C3COC3)nc2)cc1)[C@@H](O)CN(Cc1c(F)cc(-c2ccn(C)n2)cc1F)NC(=O)[C@@H](NC(=O)OC)C(C)(C)C)C(C)(C)C [Example 206, Methyl ((5S,8S,9S,14S)-5-(tert-butyl)-11-(2,6-difluoro-4-(1-methyl-1H-pyrazol-3-yl)benzyl)-9-hydroxy-15,15-dimethyl-8-(4-(6-(8-(oxetan-3-yl)-3,8-diazabicyclo [3.2.1]octan-3-yl)pyridin-3-yl)benzyl)-3,6,13-trioxo-2-oxa-4,7,11,12-tetraazahexadecan-14-yl)carbamate] | 8.43 | 0.41 | 1.03 | – | – | – | –
4 | COC(=O)N[C@H](C(=O)N[C@@H](Cc1ccc(-c2ccc(N3CC4CCC(C3)N4C3COC3)nc2)cc1)[C@@H](O)CN(Cc1c(F)cc(-c2ccn(C)n2)cc1F)NC(=O)[C@@H](NC(=O)OC)C(C)(C)C(F)(F)F)C(C)(C)C(F)(F)F [Example 207, Methyl ((5S,8S,9S,14S)-11-(2,6-difluoro-4-(1-methyl-1H-pyrazol-3-yl)benzyl)-16,16,16-trifluoro-9-hydroxy-15,15-dimethyl-8-(4-(6-(8-(oxetan-3-yl)-3,8-diazabicyclo[3.2.1]octan-3-yl)pyridin-3-yl)benzyl)-3,6,13-trioxo-5-(1,1,1-trifluoro-2-methylpropan-2-yl)-2-oxa-4,7,11,12-tetraazahexadecan-14-yl)carbamate] | 8.61 | 0.25 | 0.92 | – | – | – | –
5 | COC(=O)N[C@H](C(=O)N[C@@H](Cc1ccc(-c2cnn(C(F)F)c2)cc1)[C@@H](O)CN(Cc1c(F)cc(-c2ccn(C(F)F)n2)cc1F)NC(=O)[C@@H](NC(=O)OC)C(C)(C)C(F)(F)F)C(C)(C)C(F)(F)F [Example 209, Methyl ((5S,8S,9S,14S)-11-(4-(1-(difluoromethyl)-1H-pyrazol-3-yl)-2,6-difluorobenzyl)-8-(4-(1-(difluoromethyl)-1H-pyrazol-4-yl)benzyl)-16,16,16-trifluoro-9-hydroxy-15,15-dimethyl-3,6,13-trioxo-5-(1,1,1-trifluoro-2-methylpropan-2-yl)-2-oxa-4,7,11,12-tetraazahexadecan-14-yl)carbamate] | – | – | – | 8.50 | 1.12 | 1.21 | –
6 | CC(C)([C@H](NC(=O)OC1CC1)C(=O)N[C@@H](Cc1ccc(-c2cnn(C(F)F)c2)cc1)[C@@H](O)CN(Cc1c(F)cc(-c2cnn(C(F)F)c2)cc1F)NC(=O)[C@@H](NC(=O)OC1CC1)C(C)(C)C(F)(F)F)C(F)(F)F [Example 210, Cyclopropyl ((S)-1-(2-((2S,3S)-3-((S)-2-((cyclopropoxycarbonyl)amino)-4,4,4-trifluoro-3,3-dimethylbutanamido)-4-(4-(1-(difluoromethyl)-1H-pyrazol-4-yl)phenyl)-2-hydroxybutyl)-2-(4-(1-(difluoromethyl)-1H-pyrazol-4-yl)-2,6-difluorobenzyl)hydrazinyl)-4,4,4-trifluoro-3,3-dimethyl-1-oxobutan-2-yl)carbamate] | 7.82 | – | – | – | 0.18 | <0.18 | –
7 | COC(=O)N[C@H](C(=O)N[C@@H](Cc1ccc(-c2ccn(CC(F)F)n2)cc1)[C@@H](O)CN(Cc1c(F)cc(-c2cnc(N3CC4CCC(C3)N4C3COC3)nc2)cc1F)NC(=O)[C@@H](NC(=O)OC)C(C)(C)C(F)(F)F)C(C)(C)C(F)(F)F [Example 212, Methyl ((5S,8S,9S,14S)-11-(2,6-difluoro-4-(2-(8-(oxetan-3-yl)-3,8-diazabicyclo[3.2.1]octan-3-yl)pyrimidin-5-yl)benzyl)-8-(4-(1-(2,2-difluoroethyl)-1H-pyrazol-3-yl)benzyl)-16,16,16-trifluoro-9-hydroxy-15,15-dimethyl-3,6,13-trioxo-5-(1,1,1-trifluoro-2-methylpropan-2-yl)-2-oxa-4,7,11,12-tetraazahexadecan-14-yl)carbamate] | 8.30 | 0.33 | 0.33 | – | – | – | –
8 | CC(C)([C@H](NC(=O)C1CC1)C(=O)N[C@@H](Cc1ccc(-c2cnn(C(F)F)c2)cc1)[C@@H](O)CN(Cc1c(F)cc(-c2cnn(C(F)F)c2)cc1F)NC(=O)[C@@H](NC(=O)C1CC1)C(C)(C)C(F)(F)F)C(F)(F)F [Example 214, N—((S)-1-(2-((2S,3S)-3-((S)-2-(cyclopropanecarboxamido)-4,4,4-trifluoro-3,3-dimethylbutanamido)-4-(4-(1-(difluoromethyl)-1H-pyrazol-4-yl)phenyl)-2-hydroxybutyl)-2-(4-(1-(difluoromethyl)-1H-pyrazol-4-yl)-2,6-difluorobenzyl)hydrazinyl)-4,4,4-trifluoro-3,3-dimethyl-1-oxobutan-2-yl)cyclopropanecarboxamide] | 7.91 | – | – | – | <0.11 | <0.18 | –
9 | COC(=O)N[C@H](C(=O)NN(Cc1c(F)cc(-c2ccn(C(F)F)n2)cc1F)C[C@H](O)[C@H](Cc1ccc(-c2cnn(C(F)F)c2)cc1)NC(=O)[C@@H](NC(=O)OC)C(C)(C)C(F)(F)F)C(C)(C)C [Example 218, Methyl ((5S,8S,9S,14S)-11-(4-(1-(difluoromethyl)-1H-pyrazol-3-yl)-2,6-difluorobenzyl)-8-(4-(1-(difluoromethyl)-H-pyrazol-4-yl)benzyl)-9-hydroxy-15,15-dimethyl-3,6,13-trioxo-5-(1,1,1-trifluoro-2-methylpropan-2-yl)-2-oxa-4,7,11,12-tetraazahexadecan-14-yl)carbamate] | 8.52 | – | – | – | 0.92 | 0.45 | –
10 | COC(=O)N[C@H](C(=O)N[C@@H](Cc1ccc(C#Cc2cnc(N3CC4CCC(C3)N4C3COC3)nc2)cc1)[C@@H](O)CN(Cc1c(F)cc(-c2cn(C(F)F)nn2)cc1F)NC(=O)[C@@H](NC(=O)OC)C(C)(C)C(F)(F)F)C(C)(C)C(F)(F)F [Example 219, Methyl ((5S,8S,9S,14S)-11-(4-(1-(difluoromethyl)-1H-1,2,3-triazol-4-yl)-2,6-difluorobenzyl)-16,16,16-trifluoro-9-hydroxy-15,15-dimethyl-8-(4-((2-(8-(oxetan-3-yl)-3,8-diazabicyclo[3.2.1]octan-3-yl)pyrimidin-5-yl)ethynyl)benzyl)-3,6,13-trioxo-5-(1,1,1-trifluoro-2-methylpropan-2-yl)-2-oxa-4,7,11,12-tetraazahexadecan-14-yl)carbamate] | 8.39 | <0.11 | 0.24 | – | – | – | 0.19
11 | CC(C)([C@H](NC(=O)OC1COC1)C(=O)N[C@@H](Cc1ccc(C#Cc2cnc(N3CC4CCC(C3)N4C3COC3)nc2)cc1)[C@@H](O)CN(Cc1c(F)cc(-c2ccn(C(F)F)n2)cc1F)NC(=O)[C@@H](NC(=O)OC1COC1)C(C)(C)C(F)(F)F)C(F)(F)F [Example 220, Oxetan-3-yl ((2S)-1-(2-(4-(1-(difluoromethyl)-1H-pyrazol-3-yl)-2,6-difluorobenzyl)-2-((2S,3S)-2-hydroxy-4-(4-((2-(8-(oxetan-3-yl)-3,8-diazabicyclo [3.2.1]octan-3-yl)pyrimidin-5-yl)ethynyl)phenyl)-3-((S)-4,4,4-trifluoro-3,3-dimethyl-2-(((oxetan-3-yloxy)carbonyl)amino)butanamido)butyl)hydrazinyl)-4,4,4-trifluoro-3,3-dimethyl-1-oxobutan-2-yl)carbamate] | 8.12 | <0.11 | 0.34 | – | – | – | 0.46
